These are literature values, as cited in patent publication US20040224037A1, “Devastating treatment against hiv/aids with capsaicin” (priority 2003, published 2004).

Where two headings read alike, the source gives them in different places.

Data set [1] concerns proliferating macrophages from the blood of four patients with AIDS dementia.
In data set [2] the test system is enzyme (cyp2e1) of cytochrome p4502e1. Particulars: in the liver.
Data set [3] relates to rats. Particulars: for blood pressure and heart rate after pretreatment: previous anesthesia, Capsaicin pretreatment 100 mg during four days.
For data set [4], the system named is dogs.
The next data set has as its system herpes simplex. Particulars: sc. administration, rats infected with herpes simplex.
Data set [5] deals with histamine and 5-hydroxitryptamine. Particulars: treatment with Capsaicin in rats.
The next data set has as its system tongue. Particulars: Nelson 1910.
In another data set the test system is cats and dogs. Particulars: 50 mcg/kg iv. in cats and dogs.
Data set [6] concerns rats. Particulars: higher doses reduced acid output.
Data set [7] concerns intestinal glucose absorption. As to conditions: 140 mcg/ml, rats in vitro.
Data set [8] relates to dogs. Particulars: 10 mcg/kg iv. in dogs.
Data set [9] deals with [4-(methylnitrosamino)-1-(3-pyridyl)-1-butanone] nnk.
The test system of data set [10] is rats. Particulars: 18 mcg/kg injected, anesthesia, pretreatment 4,8,16 and 200 mg/kg each 12 hours.
Data set [11] concerns rats. As to conditions: iv. treatment, also printed 0.5 mg/kg.
A further data set deals with substance p(sp). As to conditions: pretreatment with Capsaicin in rats.
Another data set relates to b-endorphin. As to conditions: rats; 3,5,7 and 15 days after Capsaicin administration.
A further data set relates to macrophages. Particulars: in vitro.
The conditions of data set [12]: Capsaicin administration at high concentration.
For a further data set, the system named is nk cells. Particulars: deviation of more or less 11.5%.
The next data set has as its system masT cells. As to conditions: suspensions of mast cells in rats.
The subject of another data set is Sprague-Dawley cd rats. As to conditions: pregnant rats, 0, 500 or 5000 mg/kg/day.

Sequence of enzyme (cyp2e1) of cytochrome p4502e1 (P05181 whole entry, species assumed): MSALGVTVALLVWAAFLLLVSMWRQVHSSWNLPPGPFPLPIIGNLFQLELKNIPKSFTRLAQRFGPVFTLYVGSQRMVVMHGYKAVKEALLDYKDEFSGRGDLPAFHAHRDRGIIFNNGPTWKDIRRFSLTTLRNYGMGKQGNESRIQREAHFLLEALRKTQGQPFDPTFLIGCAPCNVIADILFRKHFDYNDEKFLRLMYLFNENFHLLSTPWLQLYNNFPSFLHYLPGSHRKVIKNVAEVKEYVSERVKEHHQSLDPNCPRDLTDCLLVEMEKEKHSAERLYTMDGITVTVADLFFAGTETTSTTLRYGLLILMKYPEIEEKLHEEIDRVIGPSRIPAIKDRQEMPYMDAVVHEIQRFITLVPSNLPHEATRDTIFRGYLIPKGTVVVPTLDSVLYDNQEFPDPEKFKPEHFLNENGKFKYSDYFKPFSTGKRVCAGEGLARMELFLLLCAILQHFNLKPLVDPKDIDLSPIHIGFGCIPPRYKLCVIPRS

With `CCNCCCNC[C@@H]1CC[C@H]1CNCCCNCC.Cl.Cl.Cl.Cl` (relative stereo) [SL-11038, N-ethyl-N′-(2-(3′-ethylamino-propylaminomethyl)-trans-cyclobutylmethyl)-propane 1,3-diamine tetrahydrochloride], the “effect on proliferating macrophages” value in data set [1] is “potent effect of inhibition”.

As to `CCNCCCNC[C@@H]1C[C@H]1CNCCCNCC.Cl.Cl.Cl.Cl` (relative stereo) [SL-11044, N-ethyl-N′-(2-(3′-ethylamino-propylaminomethyl)-trans-cyclopropylmethyl)-propane 1,3-diamine tetrahydrochloride], the “effect on proliferating macrophages” value in data set [1] was “potent effect of inhibition”.

For `CCNCCCCNCCCCNCCCCNCCCCNCC` [BE-4444, 1,19-bis(ethylamino)-5,10,15-triazanonadecane], in data set [1], the “effect on proliferating macrophages” value is listed as “potent effect of inhibition”.

By LD50 is commonly meant the dose expected to kill half of the subjects tested. As to `COc1cc(CNC(=O)CCCC/C=C/C(C)C)ccc1O` [Capsaicin, 8-methyl-n-vanillyl-6-nonenamide], the “activity of enzyme cyp2e1” value in data set [2] is “capable to inhibit”. In addition, the activity entry in the data set on Candida albicans, in the data set with Staphylococcus aureus, in the data set with Salmonella typhimurium and with Escherichia coli was “did not show activity” throughout. For the same compound, the “effect of iv. dose” value with cats (200 mcg/kg iv. in cats) is “bradycardia, apnea”; in the data set on cats (400 mcg/kg iv. in cats), “higher post-hypotension and a second period of apnea”; in the data set with dogs [8] it was “apnea, bradycardia, hypotension”. Also, the tension reduction with cats (200 mcg/kg iv. in cats) is recorded as 46 mmhg. Moreover, the “blood pressure and heart rate after pretreatment” value was “normal blood pressure and rate of the heart” with rats [3] (1 mcg injected, rats); “normal blood pressure and rate of the heart” in the data set on rats [3] (50 mcg slow infusion over 12 mins). Besides, the “effect of iv. dose on blood pressure and heart rate” value with rats [3] (1 mcg or 3 mcg/kg iv. in rats) is given as “reproduced three phases”. Further, the “effect on growth / activity” value in the data set with Streptococcus pyogenes, with Clostridium sporogenes, in the data set with Bacillus cereus and in the data set with Bacillus subtilis was “did not show activity” each time. The respiratory effect result is given as “fast superficial respiration, but without apnea” in the data set on dogs [4] (administration rate 10-20 mcg/kg/min, dogs) and “apnea, followed by a fast superficial respiration” in the data set on dogs [4] (injected 0.5-20 mcg/kg, dogs anesthetised with chloralose). The mortality entry in the data set on herpes simplex was “reduced mortality”. Also, in data set [5], the “histamine and 5-hydroxitryptamine” value is given as “increment”. In the data set on tongue (1 ppm), the “concentration giving perceptible warmth on tongue” value is 1 µg/mL. Besides, the “concentration giving persistent burning on tongue” value in the data set with tongue (10 ppm) is 10 µg/mL. Also, the “time for area of hyperalgesia to reach a maximum” value is recorded as not above 5 min in the data set on humans (10 mcg intradermal) and not above 7 min with humans (100 mcg intradermal). In addition, the “time to disappearance of hyperalgesia” value is given as not above 15 min in the data set on humans (10 mcg intradermal) and not above 137 min with humans (100 mcg intradermal). Moreover, the blood pressure result in the data set on cats and dogs was “fast fallen in blood pressure”. Besides, in the data set on cats and dogs, the “drop of the pulse, first value” was 108 min⁻¹. The “drop of the pulse, second value” with cats and dogs was 24 min⁻¹. The subsequent tachycardia in the data set with cats and dogs was 160 min⁻¹. In addition, the “growth (cancer)” value with cancer is given as “inhibit growth at low concentration”. Besides, in the data set with rats [6], the “dose at which acid secretory response reached a maximum” value is 1 mg/kg. In data set [7], the intestinal glucose absorption result was “inhibitory effect”. The “effect on tobacco specific carcinogen nnk” value in [9] is “inhibited”. The “Bezold-Jarisch reflex after pretreatment” value in the data set with rats [10] is “significant inhibition of the Bezold-Jarisch reflex”. The letal dose in the data set with rats [11] is 0.5 mg/kg. Also, the “effect upon the substance p(sp) at intestinal level” value in the data set on substance p(sp) was “did not have effect”. For the same compound, the “b-endorphin concentration in the hypothalamus” value with b-endorphin is given as “decreased”. Besides, the “production of anions superoxides, peroxide of hydrogen and nitrites by macrophages” value with macrophages (10 mcm) is listed as “completely inhibited”. Also, the “GLINSUKON EXP (LD50)” value is reported as 67 mg/kg with mice (ig. adm, mice); 0.5 mg/kg in the data set with mice (iv. adm, mice); 8.5 mg/kg with mice (sc. adm, mice). For the same compound, the “GLINSUKON EXP (LD50), value in brackets” value in the data set on mice (ig. adm, mice, second value in brackets) is given as 190 mg/kg. Further, in the data set with mice (iv., male mice), the LD50 is recorded as 0.56 mg/kg. Further, in the data set on mice (sc., im., and intraperitoneal (ip.), mice), the “toxicity effect measured by LD50 compared between routes” value was “similar”. For the same compound, the “time after which recovery of the desensitization is not complete” value in data set [12] is more than 60 days.

On to `CCNCCCNCCCNCCCNCC` [Denop, diethylnospermine], for which the “effect on proliferating macrophages” value in data set [1] is “potent effect of inhibition”.

`CCNCCCNC[C@@H]1C[C@@H]1CNCCCNCC.Cl.Cl.Cl.Cl` [SL-11037, n-ethyl-n′-(2-(3′-ethylamino-propylaminomethyl)-cis-cyclopropylmethyl)-propane 1,3-diamine tetrahydrochloride]: the “effect on proliferating macrophages” value in data set [1] was “potent effect of inhibition”.

Consider `CCNCCCNC/C=C\CNCCCNCC.Cl.Cl.Cl.Cl` [SL-11047, N′-bis (3-ethylaminopropyl)-cis-but-2-ene-1,4-diamine tetrahydrochloride], for which, in data set [1], the “effect on proliferating macrophages” value is given as “potent effect of inhibition”.

For the compound `CCNCCCNC/C=C/CNCCCNCC` [SL-11048], in data set [1], the “effect on proliferating macrophages” value is listed as “potent effect of inhibition”.

`CN1[C@@H]2CC[C@H]1C[C@@H](OC(=O)C(CO)c1ccccc1)C2` (some centres unmarked) [atropine]: in the data set with rats [3] (rat, in vivo), the “counteraction of the effect of Capsaicin” value is “able to counteract the effect of Capsaicin”.

Turning to `COc1cc(CNC(=O)CCCCCCC(C)C)ccc1O` [dihydroCapsaicin, 8-methylnonanoic acid vanillylamide], the activity result in the data set on Candida albicans, with Staphylococcus aureus, with Salmonella typhimurium and in the data set on Escherichia coli was “did not show activity” in each case. Besides, the “effect on growth / activity” value in the data set with Streptococcus pyogenes, with Clostridium sporogenes, in the data set with Bacillus cereus and with Bacillus subtilis was “did not show activity” each time.

As for `CCO` [ethanol], the blood alcohol concentration with human (0.5 fluid ounces (about 15 ml) in a 150 pound human) is 0.02%. Also, in the data set on human (in vivo), the “blood alcohol concentration that starts to produce measurable mental impairment” value is recorded as 0.05% and the “fraction processed by the liver” value is “over 90%”.

Regarding `C=CCc1ccc(O)c(OC)c1` [eugenol], the “concentration required to completely inhibit reactive oxygen species, compared with Capsaicin” value in the data set with macrophages was “Higher concentrations”.

Regarding “b-endorphin: group of protein with potent analgesic properties that occur naturally in the brain (YGGFMTSEKSQTPLVTLFKNAIIKNAYKKGE; Beta-endorphin; UniProt P01189 237-267, looked up)”, in the data set on lymphocytes, the “proliferative response of lymphocytes” value is given as “increases”. The “increase of activity of nk cells” value in the data set on nk cells was 30.5%.

Turning to “kallidin: neuropeptide provoking histamine release (KRPPGFSPFR; Lysyl-bradykinin; UniProt P01042 380-389, looked up)”, the “power in provoking histamine release, compared with substance p and polisteskinin” value with masT cells is recorded as “Less powerful”.

For methionyl-lysyl-bradykinin, in the data set on masT cells, the “power in provoking histamine release, compared with substance p and polisteskinin” value is “Less powerful”.

For “polyoxyethylene sorbitan monooleate [tw80]”, the signs of toxicity result in the data set with Sprague-Dawley cd rats is given as “no dose-related signs of toxicity”.
